The nature of data set [1]: Liver dosimetry of PFHxSA and PFHxS by targeted LC/MS/MS. It counts as in vivo, rat. The settings on record: for PFHxS Male Liver Conc. (wet weight) / PFHxS Female Liver Conc. (wet weight) / concentration at 24 h: individual rats; for PFHxS Male Liver Conc. (wet weight) / concentration at 24 h: male; for concentration at 24 h: Sprague Dawley (Crl:CD(SD)), liver, oral, read-out: PFHxS Male Liver Conc. (wet weight). The text has this:
The plasma and liver samples for this investigation were provided by Mutlu et al.. The study design, including detailed descriptions of animal handling, procedures for dosing, clinical observations, termination, and collection of tissues, is reported elsewhere and is consistent with the ARRIVE guidelines. Briefly, male and female Sprague Dawley (SD) rats (Crl:CD(SD)) (n = 48/sex, 96 total) were purchased from Charles River Laboratory (Raleigh, NC, USA) and allowed to acclimate for ≥5 days before initial dosing. Rats were 8–10 weeks old at the time of exposure. PFHxSA dosing solutions in corn oil were prepared on Day 0 and used over the course of the study. Rats of both sexes (n = 5/sex, dose, and time point, plus eight vehicle controls per sex) were dosed by oral gavage (5 mL/kg body weight) once daily for five days. […] The formulation concentrations decreased from 100 mg/kg/day at half-log10 intervals until the lowest dose level, which was a full log10 interval below the next higher dose, giving eight dose levels (0.01 to 100 mg/kg/day or 0.025 µmol/kg/day to 250 µmol/kg/day) in addition to vehicle controls. Doses were administered in randomized order within ± 1 h on each day of dosing. […] Rats were euthanized 24 h after the last dose. Blood was collected via cardiac puncture with tripotassium ethylene diamine tetraacetic acid (K3EDTA) as an anti-coagulant and centrifuged to collect cell-free plasma. Liver was collected and flash-frozen in liquid nitrogen. Liver, plasma, and dosing formulation samples were frozen at the USEPA Center for Computational Toxicology and Exposure (CCTE), Durham, NC, USA. Tissue samples (plasma and liver, n = 96 each) were stored at ≤−70 °C prior to extraction; dosing formulation samples (n = 9) were stored at −20 °C.
Detailed information on solvents and standards used for targeted LC/MS/MS of PFHxSA and PFHxS can be found in SI Text S1 and SI Table S1. Plasma and liver preparations were modified from Conley et al.. Briefly, aliquots of plasma (25 µL) and liver (~10 mg) were spiked with PFOSA as an internal standard, as no isotope-labeled PFHxSA was available. Sample batches included up to 96 samples along with an MB, CCV, and LCS for QC. Commercial plasma (mixed-sex SD rat plasma) and liver (mixed-sex SD rat) were obtained from BioIVT (Westbury, NY, USA). Cold acetonitrile (ACN) with 0.1 M formic acid was used to precipitate proteins. Liver and plasma samples were prepared similarly, except that the livers were homogenized after solvent addition. Plasma samples were vortexed to mix before being chilled at −20 °C, after which samples were centrifuged at 5 °C and 10,000× g. Liver samples were chilled at −80 °C, then homogenized using an Omni International (Kennesaw, GA, USA) Bead Ruptor 24. Liver homogenates were centrifuged at 26,000× g and 5 °C. Supernatants from the extraction of both matrices were removed and stored at −20 °C until analysis. Refer to SI Text S4 for additional experimental details and information on calibration and QC parameters for quantitation of PFHxSA.
Targeted LC/MS/MS of PFHxSA was performed on a Sciex 4000 QTRAP LC/MS/MS system operated in negative ESI mode with MRM scanning. A Restek (Bellefonte, PA, USA) Raptor Polar X (100 mm × 2 mm, 2.7 µm) column was used for liquid chromatography. Isocratic elution occurred over 10 min with a 30:70 ratio of mobile phase A (10 mM ammonium formate): mobile phase B (60:40 ACN: methanol). Both mobile phases included 0.05% formic acid. The LOQs for PFHxSA were 0.100 µM in plasma and 0.351 µM in liver. Additional details of the instrument method parameters for targeted analysis of PFHxSA are provided in SI Table S5. The MRM transitions for the PFHxSA method are provided in SI Table S6. […]

Data set [2] in a line: In vitro-in vivo extrapolation (IVIVE) to estimate Css, rat. As to the method:
Intrinsic hepatic clearance (Clint) and fraction unbound in plasma (fup) were calculated from the experimental point estimate data as described in Dobreniecki et al.. Steady-state concentrations (Css) were derived based on zero-order uptake of an assumed daily dose from the gut (assuming 100% intestinal bioavailability) but considering hepatic clearance and non-metabolic renal clearance. Renal clearance was calculated using the glomerular filtration rate (a species-dependent constant) and the fraction unbound in blood (fub), estimated by adjusting the experimental fup for blood/plasma partitioning. The Css calculations, along with underlying species-specific physiologic scalars, are detailed in SI Texts S6 and S7. […]
hepatocytes). In equation (C), the scalar 2000 is used to adjust the assay cell number to be consistent with units of 1 million cells in the Clint equation.
Text S7 In Vitro-In Vivo Extrapolation (IVIVE) Calculations
The pharmacokinetic equation used to estimate expected steady-state concentrations (Css) is based on zero-order uptake of a daily dose from the gut (assuming 100% bioavailability) with both nonmetabolic renal clearance (Clrenal) and hepatic clearance (Clhepatic) (Equation D). The chemical input rate (ko) is the product of the intake dosage and the model body weight; this represents the numerator of Equation D. The Clrenal calculation is shown in the first part of the denominator of Equation D; it is the product of the species-dependent glomerular filtration rate (GFR) and the unbound fraction in blood (fub) of the parent compound. The Clhepatic calculation is shown in the second part of the denominator of Equation D; it is the product of the species-dependent liver blood flow constant, the fub of the parent compound, and the experimentally derived intrinsic clearance (shown in Equation C) divided by the sum of these three values. All values used in Equation D are for first-order conditions of metabolism in the […]

Details of data set [3]: method as in Smeltz et al. [60]. Particulars: ref Smeltz et al. [60], cited from earlier work.
The mark [4] stands for this setting: PFHxSA 10 mg/kg/day oral 5 days.
Setting [5] is: PFHxSA 30 mg/kg/day oral 5 days.
The mark [6] stands for this setting: PFHxSA 100 mg/kg/day oral 5 days.

The values below come from paper PMC12737022, “Evaluations of Sex Differences in Dosimetry in Rats Following Perfluorohexanesulfonamide (PFHxSA) Oral Exposure” (Toxics, 2025).

Values joined by “and” are separate entries in the source; they are usually repeats but may differ in a detail not shown here. Equal values may be shown once. Read-outs that look alike come from different tables or passages of the source.

`O=S(=O)(O)C(F)(F)C(F)(F)C(F)(F)C(F)(F)C(F)(F)C(F)(F)F` [PFHxS, perfluorohexane sulfonic acid]: the “PFHxS Male Liver Conc. (wet weight)” value in data set [1] (PFHxSA 0.3 mg/kg/day oral 5 days) is 2.31 ng/mg and 3.68 µM and 0.95 µM and 2.30 µM and 0.85 µM and 1.47 ng/mg and 0.381 ng/mg and 0.921 ng/mg and 0.340 ng/mg; in data set [1] (PFHxSA 1 mg/kg/day oral 5 days), 2.73 ng/mg (2×) and 2.38 ng/mg and 3.34 µM and 5.56 µM and 6.81 µM (2×) and 5.95 µM and 1.34 ng/mg and 2.23 ng/mg; in data set [1] (PFHxSA 3 mg/kg/day oral 5 days) it was 4.61 ng/mg and 5.83 ng/mg and 4.92 ng/mg and 3.19 ng/mg and 11.5 µM and 14.6 µM and 12.3 µM and 7.97 µM; in data set [1] (setting [4]), 8.96 ng/mg and 6.84 ng/mg and 9.88 ng/mg and 7.36 ng/mg and 22.4 µM and 17.1 µM and 24.7 µM and 18.4 µM; in data set [1] (setting [5]), 16.3 ng/mg and 15.3 ng/mg and 15.2 ng/mg and 24.0 ng/mg and 40.7 µM and 38.2 µM and 38.3 µM and 60.1 µM; in data set [1] (setting [6]), 67.1 ng/mg and 88.3 ng/mg and 41.9 ng/mg and 34.0 ng/mg and 44.5 ng/mg and 168 µM and 221 µM and 105 µM and 85.1 µM. Also, the “PFHxS Female Liver Conc. (wet weight)” value in data set [1] (setting [4]) is 0.301 ng/mg and 0.776 ng/mg and 0.700 ng/mg and 1.18 ng/mg and 1.13 ng/mg and 0.753 µM and 1.94 µM and 1.75 µM and 2.96 µM and 2.81 µM; in data set [1] (setting [5]) it was 1.72 ng/mg and 2.56 ng/mg and 1.26 ng/mg and 1.35 ng/mg and 2.38 ng/mg and 4.31 µM and 6.39 µM and 3.15 µM and 3.37 µM and 5.96 µM; in data set [1] (setting [6]), 4.16 µM and 2.21 µM and 10.2 µM and 5.79 µM and 2.07 µM and 1.66 ng/mg and 0.885 ng/mg and 4.07 ng/mg and 2.32 ng/mg and 0.826 ng/mg. The “PFHxS lower than PFHxSA in female liver, on average” value in data set [1] (female rats, after oral PFHxSA) is listed as 2.9 fold. Moreover, the concentration at 24 h in data set [1] (rat, PFHxSA 3 mg/kg/day oral 5 days) is 3100 ng/g and 7.74 µM; in data set [1] (rat, PFHxSA 10 mg/kg/day oral 5 days), 7940 ng/g and 19.9 µM; in data set [1] (rat, PFHxSA 30 mg/kg/day oral 5 days), 14500 ng/g and 36.2 µM. In data set [1] (rat, in vivo), the “Male PFHxS liver concentrations versus females at equivalent dose levels” value is on record as “approximately ten-fold greater”. Moreover, the “Css (steady-state concentration)” value in data set [2] (Rat, IVIVE-derived, assumes 1 mg/kg/day exposure) is reported as 243 µM. The CL renal in data set [2] (Rat, non-metabolic, GFR x fub, read-out: Clrenal (renal clearance) (converted)) is 0.00167 mL/min. Further, the “PFHxS Css higher than PFHxSA Css” value in data set [2] (rat) was 1.8 fold. For the same compound, the “fup (fraction unbound in plasma)” value in data set [3] (Human plasma) is recorded as 0.0009 ^1. Also, the “fub (fraction unbound in blood)” value in data set [3] (Human) is given as 0.0016 ^1.
